Where two headings read alike, the source gives them in different places.
Key:
human parathyroid cells = test: PTH secretion from human parathyroid cells; assay type: cell-based; settings: at concentrations that caused mobilization of intracellular Ca2+, Fig. 13
[1] = target: T1, parathyroid cell Ca^2+ receptor (Bos taurus, UniProt P35384); assay type: cell-based, bovine
T1 sequence (P35384 20-1085): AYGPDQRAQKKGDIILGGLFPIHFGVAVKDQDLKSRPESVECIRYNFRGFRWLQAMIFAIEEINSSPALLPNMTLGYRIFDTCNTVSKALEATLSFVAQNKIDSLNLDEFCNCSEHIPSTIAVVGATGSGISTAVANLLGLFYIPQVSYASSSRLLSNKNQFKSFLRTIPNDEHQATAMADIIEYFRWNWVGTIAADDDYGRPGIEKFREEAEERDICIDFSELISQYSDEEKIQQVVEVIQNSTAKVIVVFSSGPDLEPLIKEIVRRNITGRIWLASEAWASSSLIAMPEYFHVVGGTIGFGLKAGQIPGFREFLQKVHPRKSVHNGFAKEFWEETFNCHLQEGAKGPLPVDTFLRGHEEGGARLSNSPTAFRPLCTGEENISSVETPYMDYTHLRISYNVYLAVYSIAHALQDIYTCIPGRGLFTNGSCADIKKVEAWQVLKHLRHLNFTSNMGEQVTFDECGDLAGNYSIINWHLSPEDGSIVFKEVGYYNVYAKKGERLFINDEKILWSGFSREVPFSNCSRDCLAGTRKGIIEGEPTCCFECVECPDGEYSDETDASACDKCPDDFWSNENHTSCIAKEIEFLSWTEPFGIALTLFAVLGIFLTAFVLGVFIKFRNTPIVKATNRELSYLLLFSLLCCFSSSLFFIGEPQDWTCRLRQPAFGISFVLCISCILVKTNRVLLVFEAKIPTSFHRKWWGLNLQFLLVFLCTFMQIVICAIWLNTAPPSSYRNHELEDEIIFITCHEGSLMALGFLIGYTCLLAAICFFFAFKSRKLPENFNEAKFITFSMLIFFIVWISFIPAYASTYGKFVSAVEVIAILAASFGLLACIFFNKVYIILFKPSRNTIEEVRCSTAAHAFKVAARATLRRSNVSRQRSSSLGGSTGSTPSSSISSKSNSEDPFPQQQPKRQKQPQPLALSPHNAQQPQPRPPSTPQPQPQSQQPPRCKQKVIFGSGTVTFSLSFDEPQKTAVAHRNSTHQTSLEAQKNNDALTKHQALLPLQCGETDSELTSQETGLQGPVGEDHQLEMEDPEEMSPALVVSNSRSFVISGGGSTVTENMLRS

[2] = Net positive charge of the molecule; assay type: physicochemical; settings: Table 1; effective charge at physiological pH
[3] = target: T2, bovine parathyroid Ca^2+-receptor (Bos taurus, UniProt P35384); test: Cl- current in Xenopus oocytes expressing the cloned receptor (BoPCaR 1); assay type: cell-based; settings: neomycin 20-100 µM
T2 construct: expressed in transfected cells; host or cells: Xenopus laevis oocytes injected with cRNA from the BoPCaR 1 cDNA (plasmid pSPORT1, ATCC 75416)
T2 sequence (P35384 20-1085): T1 sequence (P35384 20-1085)

[4] = target: T3, parathyroid cell Ca^2+ receptor (Homo sapiens, UniProt P41180); test: [Ca2+]i (fura-2) in human parathyroid cells; assay type: cell-based; parameters: increase in [Ca2+]i: dose or concentration left out as unconfirmed
T3 construct: Dissociated parathyroid cells were prepared from a parathyroid adenoma obtained by surgery from a patient with primary hyperparathyroidism; endogenous in cells; host or cells: primary human parathyroid cells from adenomatous or hyperplastic glands
T3 sequence (P41180 20-1078): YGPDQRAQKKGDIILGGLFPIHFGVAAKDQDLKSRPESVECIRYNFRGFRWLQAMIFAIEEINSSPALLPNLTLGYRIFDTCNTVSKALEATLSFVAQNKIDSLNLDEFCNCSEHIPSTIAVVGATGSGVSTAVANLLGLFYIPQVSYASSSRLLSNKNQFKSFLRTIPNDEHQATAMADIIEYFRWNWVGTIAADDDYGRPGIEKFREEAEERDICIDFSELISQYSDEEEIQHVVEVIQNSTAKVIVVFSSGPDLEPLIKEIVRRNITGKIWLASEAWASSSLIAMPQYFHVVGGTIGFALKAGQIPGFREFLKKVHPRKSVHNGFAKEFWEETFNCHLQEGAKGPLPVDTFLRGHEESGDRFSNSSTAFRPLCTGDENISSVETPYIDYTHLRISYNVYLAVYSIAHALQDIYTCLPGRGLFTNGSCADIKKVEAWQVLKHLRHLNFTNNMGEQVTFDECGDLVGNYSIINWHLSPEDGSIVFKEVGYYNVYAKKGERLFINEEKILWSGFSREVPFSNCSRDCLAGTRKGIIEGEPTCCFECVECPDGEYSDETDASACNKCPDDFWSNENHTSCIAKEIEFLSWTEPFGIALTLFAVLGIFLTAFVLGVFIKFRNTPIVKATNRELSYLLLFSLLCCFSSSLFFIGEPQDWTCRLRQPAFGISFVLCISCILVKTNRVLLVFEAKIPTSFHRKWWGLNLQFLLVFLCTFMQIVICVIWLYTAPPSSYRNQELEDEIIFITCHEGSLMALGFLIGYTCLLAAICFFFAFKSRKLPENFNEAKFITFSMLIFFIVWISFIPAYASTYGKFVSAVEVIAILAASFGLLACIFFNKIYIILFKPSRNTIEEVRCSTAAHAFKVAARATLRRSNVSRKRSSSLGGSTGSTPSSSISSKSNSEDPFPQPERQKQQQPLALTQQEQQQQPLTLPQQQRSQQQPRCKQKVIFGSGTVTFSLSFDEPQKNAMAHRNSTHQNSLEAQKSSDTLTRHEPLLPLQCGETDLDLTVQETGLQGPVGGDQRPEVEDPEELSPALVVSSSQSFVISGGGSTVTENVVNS
Procedure: Human parathyroid glands, obtained from patients undergoing surgical removal of parathyroid tissue for primary or uremic hyperparathyroidism (HPT), were treated similarly to bovine tissue. Glands were trimmed of excess fat and connective tissue and then minced with a fine scissors into approximate cubes of 2-3 mm. Dissociated parathyroid cells were prepared by collagenase digestion. Dissociated cells were then purified by centrifugation in Percoll buffer. The resultant parathyroid cell preparation was essentially devoid of red blood cells, adipocytes, and capillary tissue as assessed by phase contrast microscopy and Sudan black B staining. Dissociated and purified parathyroid cells were present as small clusters containing 5 to 20 cells.
The cells were then pelleted, resuspended in the same buffer lacking the ester, and incubated a further 15 min at 37°C. The cells were subsequently washed twice with PCB containing 0.5 mM CaCl2 and 0.5% BSA and maintained at room temperature (about 20°C). Immediately before use, the cells were diluted five-fold with prewarmed 0.5 mM CaCl2-PCB to obtain a final BSA concentration of 0.1%. The concentration of cells in the cuvette used for fluorescence recording was 1-2 x 10^6/ml.
The fluorescence of indicator-loaded cells was measured at 37°C in a spectrofluorimeter (Biomedical Instrumentation Group, University of Pennsylvania, Philadelphia, PA) equipped with a thermostated cuvette holder-and magnetic stirrer using excitation and emission wavelengths of 340 and 510 nm, respectively. […] Leakage of dye is dependent on temperature and most occurs within the first 2 min after warming the cells in the cuvette; dye leakage increases only very slowly thereafter. To correct the calibration for dye leakage, cells were placed in the cuvette and stirred at 37°C for 2-3 min. The cell suspension was then removed, the cells pelleted, and the supernatant returned to a clean cuvette. […] This estimate was subtracted from the apparent Fmin.

[5] = system: osteoclast Ca^2+ receptor; test: [Ca2+]i (indo-1) in single rat osteoclasts; assay type: cell-based
Ca^2+ receptor = target: T4, Ca^2+ receptor (Homo sapiens, UniProt P41180); test: Cl- current in Xenopus oocytes injected with human parathyroid poly(A)+ mRNA; assay type: cell-based
T4 construct: Oocytes were injected with poly(A)^+-enriched mRNA from human parathyroid tissue (hyperplastic glands from a case of secondary HPT); expressed in transfected cells; host or cells: Xenopus laevis oocytes injected with poly(A)+ mRNA from hyperplastic human parathyroid glands
T4 sequence (P41180 20-1078): T3 sequence (P41180 20-1078)

In the case of `NC[C@@H]1O[C@H](O[C@H]2[C@@H](O)[C@H](O[C@@H]3[C@@H](O)[C@H](N)C[C@H](N)[C@H]3O[C@H]3O[C@H](CN)[C@@H](O)[C@H](O)[C@H]3N)O[C@@H]2CO)[C@H](N)[C@@H](O)[C@@H]1O` [neomycin B], the “inhibition of PTH secretion” value (human parathyroid cells) is reported as “inhibited PTH secretion from human parathyroid cells”, the “[Ca2+]i response in Ca2+-free buffer” value ([1]; 100 µM neomycin (maximally effective), absence of extracellular Ca2+) is reported as “rapid and transient increase in [Ca^2+]i” and the “[Ca2+]i response in Ca2+-free buffer” value ([1]; 10 àM neomycin alone (submaximal), Ca2+-free buffer) is reported as “did not by itself cause an increase in [Ca^2+]i”. The “Net (+) Charge” value [2] was “+6”, the “changes in Cl- current” value [3] was “produced changes in Cl^- current in oocytes essentially identical to those produced by Ca^2+ or Gd^3+” and the “pattern of change in [Ca2+]i” value ([4]; human parathyroid cells from adenomatous tissue, Fig. 19) was “not only a transient but additionally a steady-state increase in [Ca^2+]i”. For the same compound, the “increase in [Ca2+]i” value ([4]; tested) was “large increase in [Ca^2+]i”, the “effect on basal [Ca2+]i” value ([5]; 5 mM) was “without effect on basal [Ca^2+]i” and the “effect on the response to subsequent extracellular Ca2+ (25 mM)” value ([5]; neomycin 10 mM, spermine 20 mM, verapamil 100 µM) was “did not block”. For the same compound, the “increase in [Ca2+]i in rat osteoclasts” value ([5]; neomycin 10 mM, spermine 10 or 20 mM) was “Neither neomycin (10 mM) nor spermine (10 or 20 mM) caused increases in [Ca^2+]i”, the “increase in [Ca2+]i in osteoclasts” value ([5]; neomycin B 1 mM, spermine 1 or 5 mM, Fig. 23) was “failed to evoke any increase in [Ca^2+]i” and the “increase in [Ca2+]i in osteoclasts” value ([5]; screening, small responses were detected) was “none of these caused any large increase in [Ca^2+]i”. For the same compound, the “mobilization of intracellular Ca2+ in oocytes expressing the Ca2+ receptor” value (Ca^2+ receptor; hexacyclen 135 µM, neomycin 100 µM, NPS 382 5 mM) was “effective” and the “change in current in water-injected oocytes” value (Ca^2+ receptor; neomycin B 10 mM, five water-injected oocytes) was “failed to cause any change in the current”.

Source: patent publication EP0637237B1, “CALCIUM RECEPTOR-ACTIVE MOLECULES” (BRIGHAM AND WOMEN'S HOSPITAL, INC., priority 1993, dated 1994)
